Laboratory results as given in BindingDB's records for patent US11161844 (PFIZER INC., 2021).

Legend:
[1] = biological target: Leucine-rich repeat serine/threonine-protein kinase 2 (Homo sapiens, UniProt Q5S007); test: LRRK2 Assay
Method: (§1) LRRK2 kinase activity was measured using Lantha Screen technology from Invitrogen. GST-tagged truncated LRRK2 from Invitrogen (Cat #PV4874) was incubated with a fluorescein-labeled peptide substrate based upon ezrin/radixin/moesin (ERM), also known as LRRKtide (Invitrogen cat #PR8976A), in the presence of a dose response of compound. Upon completion, the assay was stopped and detected with a terbium labeled anti-phospho-ERM antibody (Invitrogen, cat #PR8975A). The assay was carried out under the following protocol: The compound dose response was prepared by diluting compound to a top concentration of 0.3 mM in 100% DMSO and serial diluted by half-log in DMSO to give an 11 point curve, 100× final assay concentration. Using Echo acoustic dispensing, 60 nL of compound was transferred to a low volume Corning 384-well assay plate. 3 μL of a working solution of substrate (200 nM LRRKtide, 2 mM ATP) prepared in assay buffer (50 mM HEPES, pH 7.5, 3 mM MgCl2, with 2 mM DTT and 0.01% Brij35 added fresh) was added to the 60 nL compound assay plate. The kinase reaction was started with 3 μL of a working solution of LRRK2 enzyme at a concentration of 4 μg/mL. The final reaction concentrations were 100 nM LRRKtide, 1 mM ATP, 2 μg/mL LRRK2 enzyme and a compound dose response with a top dose of 3 μM. The reaction was allowed to progress at room temperature for 30 minutes and then stopped with the addition of 6 μL of detection buffer (20 mM Tris pH 7.6, 0.01% NP-40, 6 mM EDTA with 2 nM terbium labeled anti-phospho-ERM). After an incubation of 1 hour at room temperature, the plate was read on an Envision with an excitation wavelength of 340 nm and a reading emission at both 520 nm and 495 nm. The ratio of the 520 nm and 495 nm emission was used to analyze the data. Inhibition of mutant G2019S LRRK2 (Invitrogen cat #PV4881) was measured in the exact same method. All final concentrations of substrate ATP and enzyme were the same.

[2] = biological target: Leucine-rich repeat serine/threonine-protein kinase 2 [G2019S] (Homo sapiens, UniProt Q5S007, G2019S); test: LRRK2 Assay
Sequence of Leucine-rich repeat serine/threonine-protein kinase 2 [G2019S] (Q5S007 whole entry G2019S): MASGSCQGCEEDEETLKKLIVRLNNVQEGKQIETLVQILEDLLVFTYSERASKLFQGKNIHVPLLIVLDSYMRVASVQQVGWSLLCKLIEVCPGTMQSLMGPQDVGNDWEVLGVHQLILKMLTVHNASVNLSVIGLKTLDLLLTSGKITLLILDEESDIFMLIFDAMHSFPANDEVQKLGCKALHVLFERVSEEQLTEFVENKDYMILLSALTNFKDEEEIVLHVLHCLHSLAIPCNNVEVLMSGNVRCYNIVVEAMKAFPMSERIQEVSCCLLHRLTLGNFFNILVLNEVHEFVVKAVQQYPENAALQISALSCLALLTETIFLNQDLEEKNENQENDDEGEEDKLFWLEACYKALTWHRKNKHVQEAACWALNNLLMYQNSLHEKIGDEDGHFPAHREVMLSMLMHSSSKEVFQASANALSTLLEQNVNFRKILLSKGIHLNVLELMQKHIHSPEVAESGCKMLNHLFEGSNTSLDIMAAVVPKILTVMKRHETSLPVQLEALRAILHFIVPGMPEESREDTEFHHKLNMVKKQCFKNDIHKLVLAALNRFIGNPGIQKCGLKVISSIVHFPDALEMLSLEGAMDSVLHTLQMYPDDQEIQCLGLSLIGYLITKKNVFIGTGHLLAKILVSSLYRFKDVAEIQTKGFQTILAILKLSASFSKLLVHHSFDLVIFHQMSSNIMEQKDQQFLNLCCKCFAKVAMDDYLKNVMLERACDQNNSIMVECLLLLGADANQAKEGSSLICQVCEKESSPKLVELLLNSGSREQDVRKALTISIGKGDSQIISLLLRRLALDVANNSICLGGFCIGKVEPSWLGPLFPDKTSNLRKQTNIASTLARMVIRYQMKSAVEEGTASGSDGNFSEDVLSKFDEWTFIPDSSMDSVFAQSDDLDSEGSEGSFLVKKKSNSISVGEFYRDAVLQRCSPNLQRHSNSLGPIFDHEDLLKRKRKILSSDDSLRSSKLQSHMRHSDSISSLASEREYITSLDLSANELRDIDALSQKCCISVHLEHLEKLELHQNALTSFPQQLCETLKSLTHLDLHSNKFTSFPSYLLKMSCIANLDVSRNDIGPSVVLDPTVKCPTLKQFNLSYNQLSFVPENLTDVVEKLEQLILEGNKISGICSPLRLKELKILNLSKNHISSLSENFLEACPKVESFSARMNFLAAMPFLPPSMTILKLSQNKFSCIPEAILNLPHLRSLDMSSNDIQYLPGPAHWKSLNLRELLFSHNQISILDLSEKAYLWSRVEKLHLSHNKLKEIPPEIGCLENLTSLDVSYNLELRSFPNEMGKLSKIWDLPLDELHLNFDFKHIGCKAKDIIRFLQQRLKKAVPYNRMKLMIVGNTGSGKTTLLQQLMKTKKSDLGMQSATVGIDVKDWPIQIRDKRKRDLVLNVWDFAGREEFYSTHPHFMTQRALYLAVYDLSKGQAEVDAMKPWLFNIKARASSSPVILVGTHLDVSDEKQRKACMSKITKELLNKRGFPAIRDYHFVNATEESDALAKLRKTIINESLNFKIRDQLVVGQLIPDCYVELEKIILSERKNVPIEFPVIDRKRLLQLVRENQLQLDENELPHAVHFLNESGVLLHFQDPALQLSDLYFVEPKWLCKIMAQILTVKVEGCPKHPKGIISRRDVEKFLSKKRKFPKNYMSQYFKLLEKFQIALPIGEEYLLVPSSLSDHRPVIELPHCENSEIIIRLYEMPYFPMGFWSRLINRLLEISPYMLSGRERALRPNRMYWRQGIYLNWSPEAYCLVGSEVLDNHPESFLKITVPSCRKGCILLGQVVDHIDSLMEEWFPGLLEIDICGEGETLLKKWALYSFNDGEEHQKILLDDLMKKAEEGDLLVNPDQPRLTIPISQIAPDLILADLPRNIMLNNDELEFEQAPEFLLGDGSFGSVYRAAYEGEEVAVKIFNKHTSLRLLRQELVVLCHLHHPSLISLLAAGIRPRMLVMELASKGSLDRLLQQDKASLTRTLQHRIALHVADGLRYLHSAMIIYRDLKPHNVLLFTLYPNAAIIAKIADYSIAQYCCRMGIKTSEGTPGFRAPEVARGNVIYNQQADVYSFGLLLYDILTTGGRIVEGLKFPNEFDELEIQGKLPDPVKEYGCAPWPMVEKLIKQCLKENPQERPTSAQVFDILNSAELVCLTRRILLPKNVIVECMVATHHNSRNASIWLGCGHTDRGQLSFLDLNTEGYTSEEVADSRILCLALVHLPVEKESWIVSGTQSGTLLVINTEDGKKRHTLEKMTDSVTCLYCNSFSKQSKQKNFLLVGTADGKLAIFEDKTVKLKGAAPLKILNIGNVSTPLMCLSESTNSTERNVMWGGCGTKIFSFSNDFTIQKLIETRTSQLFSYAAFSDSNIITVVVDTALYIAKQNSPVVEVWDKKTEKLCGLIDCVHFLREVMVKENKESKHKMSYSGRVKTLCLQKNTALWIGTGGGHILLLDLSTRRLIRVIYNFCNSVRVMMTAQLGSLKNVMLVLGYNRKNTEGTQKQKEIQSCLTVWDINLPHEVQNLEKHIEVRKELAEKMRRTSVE
Method: as §1

Sequence of Leucine-rich repeat serine/threonine-protein kinase 2 (Q5S007 whole entry, the tested form may be a part): as the sequence (Q5S007 whole entry G2019S) above, with S2019G counted along it

Row | IC50 [1] | IC50 [2] | SMILES
1 | 5.68 nM | – | C[C@@H]1C[C@H](n2c(C3CCC(F)C3)nc3cnc4ccc(F)cc4c32)CCO1 (single isomer, unassigned) [US11161844, Example 37]
2 | 22 nM | 15.8 nM | C[C@@H]1CC(n2c(C3CC(C)(F)C3)nc3cnc4ccc(F)cc4c32)CCO1 (stereo partly drawn) [US11161844, Example 31]
